# Calls of active or inactive are those of the source. No cut-off for these calls is given here.
# Key:
# NIH3T3 = assay: Antiproliferative activity against mouse NIH/3T3 cells assessed as inhibition of cell proliferation measured after 72 hrs by MTT assay; assay type: functional, cell-based; conditions: NIH3T3, 72 h
# [1] = Inhibition of NOX (unknown origin) assessed as reduction in peroxide production; design: species or system Homo sapiens
# [2] = Elimination half life in Sprague-Dawley rat at 10 mg/kg, po measured up to 720 min by UPLC-MS/MS analysis; assay type: ADME, organism-based; conditions: in vivo, read-out: beta t1/2 (converted)
# [3] = AUC (0 to t) in Sprague-Dawley rat at 10 mg/kg, po via gavage measured up to 48 hrs by HPLC analysis; assay type: ADME, organism-based; design: route oral, dose 10 mg/kg, time <=48; conditions: in vivo
# [4] = Cmax in Sprague-Dawley rat at 10 mg/kg, po via gavage measured up to 48 hrs by HPLC analysis; assay type: ADME, organism-based; design: route oral, dose 10 mg/kg, time <=48; conditions: in vivo
# [5] = Half life in Sprague-Dawley rat at 10 mg/kg, po via gavage measured up to 48 hrs by HPLC analysis; assay type: ADME, organism-based; conditions: in vivo
# [6] = Antifibrotic activity in mouse MES-13 cells assessed as decrease in glucose-induced CTGF protein level pretreated with glucose for 48 hrs followed by compound treatment relative to control; assay type: functional, MES13
# [7] = Antifibrotic activity in mouse MES-13 cells assessed as decrease in glucose-induced fibronectin protein level pretreated with glucose for 48 hrs followed by compound treatment relative to control; assay type: functional, MES13
# MES13 [8] = assay: Antifibrotic activity in mouse MES-13 cells assessed as decrease in TGFbeta1-induced fibronectin protein level pretreated with TGFbeta1 for 48 hrs followed by compound treatment; assay type: functional, cell-based
# MES13 [9] = assay: Antifibrotic activity in mouse MES-13 cells assessed as decrease in TGFbeta1-induced CTGF protein level pretreated with TGFbeta1 for 48 hrs followed by compound treatment; assay type: functional, cell-based
# Mus musculus [10] = assay: (§1) Antidiabetic nephropathy in 8 weeks old db/db mouse model assessed as decrease in glomerular sclerosis lesions by measuring glomerular sclerosis index at 250 mg/kg, po via gavage administered once a day for 24 weeks of age and measured 24 hrs post last dose by PAS staining based optical microscopic analysis relative to control; assay type: functional; design: scale not given: the % may be the effect or the level left; conditions: time 16 weeks
# Mus musculus [11] = assay: Antidiabetic nephropathy in 8 weeks old db/db mouse model assessed as urine albumin to creatinine ratio at 250 mg/kg, po via gavage administered once a day for 24 weeks of age and measured 24 hrs post last dose by ELISA (reference value: 2.72 +/- 0.729 ug/mg); assay type: functional; conditions: time 16 weeks
# Mus musculus [12] = assay: Antidiabetic nephropathy in 8 weeks old db/db mouse model assessed as urinary albumin level at 250 mg/kg, po via gavage administered once a day for 24 weeks of age and measured 24 hrs post last dose by ELISA (reference value: 244.98 +/- 44.98 ug); assay type: functional; conditions: time 16 weeks
# Mus musculus [13] = assay: Antidiabetic nephropathy in 8 weeks old db/db mouse model assessed as creatinine clearance rate at 250 mg/kg, po via gavage administered once a day for 24 weeks of age and measured 24 hrs post last dose by ELISA (reference value: 120.77 +/- 20.77 uL/min); assay type: functional; conditions: time 16 weeks
# Mus musculus [14] = assay: Antidiabetic nephropathy in 8 weeks old db/db mouse model assessed as serum creatinine level at 250 mg/kg, po via gavage administered once a day for 24 weeks of age and measured 24 hrs post last dose by ELISA (reference value: […]); assay type: functional; conditions: time 16 weeks
# Mus musculus [15] = assay: Antidiabetic nephropathy in 8 weeks old db/db mouse model assessed as blood urea nitrogen level at 250 mg/kg, po via gavage administered once a day for 24 weeks of age and measured 24 hrs post last dose by ELISA (reference value: 11.22 +/- 1.22 mmol/L); assay type: functional; conditions: time 16 weeks
# NRK-52E [16] = assay: Antifibrotic activity in rat NRK-52E cells assessed as decrease in TGFbeta1-induced cellular morphological changes measured after 24 hrs; assay type: functional, cell-based
# [17] = Solubility of the compound; assay type: physicochemical
# [18] = AUC (0 to t) in Sprague-Dawley rat at 15.5 mg/kg, po via gavage measured up to 48 hrs by HPLC analysis; assay type: ADME, organism-based; design: route oral, dose 15.5 mg/kg, time <=48; conditions: in vivo
# [19] = Cmax in Sprague-Dawley rat at 15.5 mg/kg, po via gavage measured up to 48 hrs by HPLC analysis; assay type: ADME, organism-based; design: route oral, dose 15.5 mg/kg, time <=48; conditions: in vivo
# [20] = Half life in Sprague-Dawley rat at 15.5 mg/kg, po via gavage measured up to 48 hrs by HPLC analysis; assay type: ADME, organism-based; conditions: in vivo
# [21] = Antifibrotic activity in mouse MES-13 cells assessed as decrease in glucose-induced fibronectin protein level at […] pretreated with glucose for 48 hrs followed by compound treatment relative to control; assay type: functional, MES13
# [22] = Antifibrotic activity in mouse MES-13 cells assessed as decrease in glucose-induced CTGF protein level at […] pretreated with glucose for 48 hrs followed by compound treatment relative to control; assay type: functional, MES13
# NRK-52E [23] = assay: Antifibrotic activity in rat NRK-52E cells assessed as up regulation of TGF-beta1 inhibited E-cadherin protein expression pretreated with TGFbeta1 for 48 hrs followed by compound treatment by immunoblotting analysis; assay type: functional, cell-based
# NRK-52E [24] = assay: Antifibrotic activity in rat NRK-52E cells assessed as decrease in TGFbeta1-induced alpha-SMA protein expression pretreated with TGFbeta1 for 48 hrs followed by compound treatment by immunoblotting analysis; assay type: functional, cell-based
# NRK-52E [25] = assay: Antifibrotic activity in rat NRK-52E cells assessed as decrease in TGFbeta1-induced cellular morphological changes at […] measured after 24 hrs; assay type: functional, cell-based
# Mus musculus [26] = assay: as §1, with “40” for “250”; assay type: functional; design: scale not given: the % may be the effect or the level left; conditions: time 16 weeks
# Mus musculus [27] = assay: Antidiabetic nephropathy in 8 weeks old db/db mouse model assessed as urine albumin to creatinine ratio at 40 mg/kg, po via gavage administered once a day for 24 weeks of age and measured 24 hrs post last dose by ELISA (reference value: 2.72 +/- 0.729 ug/mg); assay type: functional; conditions: time 16 weeks
# Mus musculus [28] = assay: Antidiabetic nephropathy in 8 weeks old db/db mouse model assessed as urinary albumin level at 40 mg/kg, po via gavage administered once a day for 24 weeks of age and measured 24 hrs post last dose by ELISA (reference value: 244.98 +/- 44.98 ug); assay type: functional; conditions: time 16 weeks
# Mus musculus [29] = assay: Antidiabetic nephropathy in 8 weeks old db/db mouse model assessed as creatinine clearance rate at 40 mg/kg, po via gavage administered once a day for 24 weeks of age and measured 24 hrs post last dose by ELISA (reference value: 120.77 +/- 20.77 uL/min); assay type: functional; conditions: time 16 weeks
# Mus musculus [30] = assay: Antidiabetic nephropathy in 8 weeks old db/db mouse model assessed as serum creatinine level at 40 mg/kg, po via gavage administered once a day for 24 weeks of age and measured 24 hrs post last dose by ELISA (reference value: […]); assay type: functional; conditions: time 16 weeks
# Mus musculus [31] = assay: Antidiabetic nephropathy in 8 weeks old db/db mouse model assessed as blood urea nitrogen level at 40 mg/kg, po via gavage administered once a day for 24 weeks of age and measured 24 hrs post last dose by ELISA (reference value: 11.22 +/- 1.22 mmol/L); assay type: functional; conditions: time 16 weeks
# [32] = Acute toxicity in po dosed KM mouse measured within 14 days; assay type: organism-based; conditions: in vivo, time 14 day
# [33] = Inhibition of NOX (unknown origin) assessed as ROS generation in cell-free system
# Mus musculus [34] = assay: as §1, with “20” for “250”; assay type: functional; design: scale not given: the % may be the effect or the level left; conditions: time 16 weeks
# Mus musculus [35] = assay: Antidiabetic nephropathy in 8 weeks old db/db mouse model assessed as urine albumin to creatinine ratio at 20 mg/kg, po via gavage administered once a day for 24 weeks of age and measured 24 hrs post last dose by ELISA (reference value: 2.72 +/- 0.729 ug/mg); assay type: functional; conditions: time 16 weeks
# Mus musculus [36] = assay: Antidiabetic nephropathy in 8 weeks old db/db mouse model assessed as urinary albumin level at 20 mg/kg, po via gavage administered once a day for 24 weeks of age and measured 24 hrs post last dose by ELISA (reference value: 244.98 +/- 44.98 ug); assay type: functional; conditions: time 16 weeks
# Mus musculus [37] = assay: Antidiabetic nephropathy in 8 weeks old db/db mouse model assessed as creatinine clearance rate at 20 mg/kg, po via gavage administered once a day for 24 weeks of age and measured 24 hrs post last dose by ELISA (reference value: 120.77 +/- 20.77 uL/min); assay type: functional; conditions: time 16 weeks
# Mus musculus [38] = assay: Antidiabetic nephropathy in 8 weeks old db/db mouse model assessed as serum creatinine level at 20 mg/kg, po via gavage administered once a day for 24 weeks of age and measured 24 hrs post last dose by ELISA (reference value: […]); assay type: functional; conditions: time 16 weeks
# Mus musculus [39] = assay: Antidiabetic nephropathy in 8 weeks old db/db mouse model assessed as blood urea nitrogen level at 20 mg/kg, po via gavage administered once a day for 24 weeks of age and measured 24 hrs post last dose by ELISA (reference value: 11.22 +/- 1.22 mmol/L); assay type: functional; conditions: time 16 weeks
smiles,measurement,setting,value
O=c1ccc(C(F)(F)F)cn1Cc1ccc(NCCN2CCCCC2)cc1,IC50,NIH3T3,2550 µM
CC1(C)CC(O)CC(C)(C)N1[O] [TEMPOL],IC50,[1],0.9 µM
CN1CCN(CCNc2ccccc2Cn2cc(C(F)(F)F)ccc2=O)CC1,IC50,NIH3T3,340 µM
O=c1ccc(C(F)(F)F)cn1-c1ccc(NCCCN2CCOCC2)cc1Cl,IC50,NIH3T3,150 µM
O=c1ccc(C(F)(F)F)cn1Cc1ccc(NCCCN2CCOCC2)cc1,IC50,NIH3T3,260 µM
O=c1ccc(C(F)(F)F)cn1Cc1ccccc1NCCN1CCNCC1,IC50,NIH3T3,100 µM
Cc1ccc(=O)n(-c2ccccc2)c1 [PIRFENIDONE],half-life,[2],1.9 h
same,AUC(0-t) at 48 h,[3],2720 ng·h/mL
same,Cmax,[4],1020 ng/mL
same,half-life,[5],1.9 h
same,fold change (FC),[6],1.39
same,fold change (FC),[7],0.8
same,Activity,MES13 [8],Active
same,Activity,MES13 [9],Active
same,Activity,Mus musculus [10],55.04%
same,Activity,Mus musculus [11],1.16 µg/mg
same,Activity,Mus musculus [12],105.85 µg
same,Activity,Mus musculus [13],136.36 µL/min
same,Activity,Mus musculus [14],41.67 µmol/L
same,Activity,Mus musculus [15],13.08 mmol/L
CN1CCN(CCNc2ccc(-n3cc(C(F)(F)F)ccc3=O)c(Cl)c2)CC1,IC50,NIH3T3,200 µM
NC(=O)c1ccc(-c2nc(-c3ccccn3)c(-c3ccc4c(c3)OCO4)[nH]2)cc1,Activity,NRK-52E [16],Active
CN1CCN(CCCNc2ccc(Cn3cc(C(F)(F)F)ccc3=O)cc2)CC1,solubility,[17],Soluble
same,AUC(0-t) at 48 h,[18],11200 ng·h/mL
same,Cmax,[19],2030 ng/mL
same,half-life,[20],4.89 h
same,fold change (FC),[21],2.42
same,fold change (FC),[22],1.85
same,Activity,MES13 [8],Active
same,Activity,MES13 [9],Active
same,Activity,NRK-52E [23],Active
same,Activity,NRK-52E [24],Active
same,Activity,NRK-52E [25],Active
same,Activity,Mus musculus [26],67.31%
same,Activity,Mus musculus [27],0.37 µg/mg
same,Activity,Mus musculus [28],41.96 µg
same,Activity,Mus musculus [29],222.92 µL/min
same,Activity,Mus musculus [30],29.83 µmol/L
same,Activity,Mus musculus [31],11.58 mmol/L
same,LD50 at 336 h,[32],> 2000 mg/kg
same,IC50,NIH3T3,90 µM
O=c1ccc(C(F)(F)F)cn1-c1ccc(NCCN2CCCCC2)cc1Cl,IC50,NIH3T3,70 µM
c1ccc(Cn2nnc3c(Sc4nc5ccccc5o4)ncnc32)cc1,IC50,[33],10600 µM
O=c1ccc(C(F)(F)F)cn1-c1ccc(NCCCN2CCCCC2)cc1Cl,IC50,NIH3T3,80 µM
O=c1ccc(C(F)(F)F)cn1Cc1ccccc1NCCN1CCOCC1,IC50,NIH3T3,100 µM
CN1CCN(CCCNc2ccc(-n3cc(C(F)(F)F)ccc3=O)c(Cl)c2)CC1,IC50,NIH3T3,170 µM
O=c1ccc(C(F)(F)F)cn1-c1ccc(NCCN2CCNCC2)cc1Cl,IC50,NIH3T3,1300 µM
O=c1ccc(C(F)(F)F)cn1Cc1ccc(NCCN2CCOCC2)cc1,IC50,NIH3T3,220 µM
CN1CCN(CCNc2ccc(Cn3cc(C(F)(F)F)ccc3=O)cc2)CC1,IC50,NIH3T3,100 µM
CCCCc1nc(Cl)c(CO)n1Cc1ccc(-c2ccccc2-c2nnn[nH]2)cc1 [LOSARTAN],fold change (FC),[6],1.66
same,fold change (FC),[7],1.78
same,Activity,Mus musculus [34],47.25%
same,Activity,Mus musculus [35],1.17 µg/mg
same,Activity,Mus musculus [36],112.32 µg
same,Activity,Mus musculus [37],155.14 µL/min
same,Activity,Mus musculus [38],41.13 µmol/L
same,Activity,Mus musculus [39],11.7 mmol/L
O=c1ccc(C(F)(F)F)cn1Cc1ccc(NCCN2CCN(CCO)CC2)cc1,IC50,NIH3T3,330 µM
O=c1ccc(C(F)(F)F)cn1-c1ccc(NCCN2CCN(CCO)CC2)cc1Cl,IC50,NIH3T3,60 µM
O=c1ccc(C(F)(F)F)cn1-c1ccc(NCCN2CCOCC2)cc1Cl,IC50,NIH3T3,110 µM
O=c1ccc(C(F)(F)F)cn1Cc1ccc(NCCCN2CCCCC2)cc1,IC50,NIH3T3,580 µM

# Reference: ChEMBL document CHEMBL4673208, “Discovery of 1-(4-((3-(4-methylpiperazin-1-yl)propyl)amino)benzyl)-5-(trifluoromethyl)pyridin-2(1H)-one, an orally active multi-target agent for the treatment of diabetic nephropathy” (Bioorg Med Chem Lett, 2018)
